Source: PubChem BioAssay AID330 (DTP/NCI, 2004)
Where “and” joins values, the source holds several entries; their conditions need not be identical. Equal values may be shown once. Inconclusive results and toxic doses are left out.

Tested on: P388 leukemia ip, CD2F1 mice, survival T/C
Test: NCI In Vivo Anticancer Drug Screen. Data for tumor model P388 Leukemia (intraperitoneal) in CD2F1 (CDF1) mice
Details: endpoint: median survival time, higher = longer survival
In short: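 Mice carrying the transplanted tumor received test compound or vehicle. Survival was recorded in each group, and the value is the treated-group measurement divided by that of the vehicle-treated control group.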

[1] = dose: 50.0 mg/kg/injection, schedule: Q01DX005 (ip), vehicle: Klucel (hydroxypropylcellulose) (HPC)
[2] = dose: 100.0 mg/kg/injection, schedule: Q01DX005 (ip), vehicle: Klucel (hydroxypropylcellulose) (HPC)
[3] = dose: 50.0 mg/kg/injection, schedule: Q01DX005 (ip), vehicle: saline with Tween-80
[4] = dose: 100.0 mg/kg/injection, schedule: Q01DX005 (ip), vehicle: saline with Tween-80
[5] = dose: 200.0 mg/kg/injection, schedule: Q01DX005 (ip), vehicle: saline with Tween-80
[6] = dose: 50.0 mg/kg/injection, schedule: Q01DX009 (ip), vehicle: saline
[7] = dose: 100.0 mg/kg/injection, schedule: Q01DX009 (ip), vehicle: saline

In the case of `O=c1c2ccccc2[nH]c2c1[nH]c1ccccc12`, the T/C [1] is reported as 89 % of control and the T/C [2] is reported as 90 % of control.

For `C=CCc1c2[n+](cc3c(OC)c(OC)ccc13)CCc1cc3c(cc1-2)OCO3`, the T/C (dose: 0.4 mg/kg/injection, schedule: Q01DX005 (ip), vehicle: saline) was 107 % of control and 92 % of control, the T/C (dose: 0.8 mg/kg/injection, schedule: Q01DX005 (ip), vehicle: saline) was 99 % of control and 111 % of control and the T/C (dose: 1.6 mg/kg/injection, schedule: Q01DX005 (ip), vehicle: saline) was 100 % of control and 103 % of control.

In the case of `O=NN(CCCl)C(=O)Nc1c[nH]c(=O)[nH]c1=O`, the T/C (dose: 0.01 mg/kg/injection, schedule: Q04DX003 (ip), vehicle: saline with Tween-80) is reported as 95 % of control, the T/C (dose: 0.02 mg/kg/injection, schedule: Q04DX003 (ip), vehicle: saline with Tween-80) is reported as 100 % of control and the T/C (dose: 0.04 mg/kg/injection, schedule: Q04DX003 (ip), vehicle: saline with Tween-80) is reported as 100 % of control. The T/C (dose: 0.5 mg/kg/injection, schedule: Q04DX003 (ip), vehicle: saline) was 150 % of control, the T/C (dose: 1.0 mg/kg/injection, schedule: Q04DX003 (ip), vehicle: saline) was 159 % of control and the T/C (dose: 2.0 mg/kg/injection, schedule: Q04DX003 (ip), vehicle: saline) was 172 % of control. For the same molecule, the T/C (dose: 3.0 mg/kg/injection, schedule: Q04DX003 (ip), vehicle: saline with Tween-80) was 195 % of control, the T/C (dose: 3.13 mg/kg/injection, schedule: Q01DX009 (ip), vehicle: saline with Tween-80) was 227 % of control and the T/C (dose: 6.0 mg/kg/injection, schedule: Q04DX003 (ip), vehicle: saline with Tween-80) was 213 % of control. For the same molecule, the T/C (dose: 6.25 mg/kg/injection, schedule: Q01DX009 (ip), vehicle: saline with Tween-80) was 227 % of control, the T/C (dose: 8.0 mg/kg/injection, schedule: Q04DX003 (ip), vehicle: saline with Tween-80) was 191 % of control and the T/C (dose: 12.0 mg/kg/injection, schedule: Q04DX003 (ip), vehicle: saline with Tween-80) was 166 % of control. The T/C (dose: 12.5 mg/kg/injection, schedule: Q01DX009 (ip), vehicle: saline with Tween-80) was 109 % of control, the T/C (dose: 12.5 mg/kg/injection, schedule: Q04DX003 (ip), vehicle: saline with Tween-80) was 219 % of control and the T/C (dose: 18.0 mg/kg/injection, schedule: Q04DX003 (ip), vehicle: saline with Tween-80) was 191 % of control. For the same molecule, the T/C (dose: 30.0 mg/kg/injection, schedule: Q01DX009 (ip), vehicle: saline with Tween-80) was 100 % of control.

For `O=C1C(Br)CCC1(c1ccccc1)c1ccccc1` (stereo unspecified), the T/C (dose: 100.0 mg/kg/injection, schedule: Q01DX001 (ip), vehicle: Klucel (hydroxypropylcellulose) (HPC)) was 102 % of control, the T/C (dose: 200.0 mg/kg/injection, schedule: Q01DX001 (ip), vehicle: Klucel (hydroxypropylcellulose) (HPC)) was 106 % of control and the T/C (dose: 400.0 mg/kg/injection, schedule: Q01DX001 (ip), vehicle: Klucel (hydroxypropylcellulose) (HPC)) was 102 % of control.

In the case of `O=C1C=CC(Nc2ccccc2[N+](=O)[O-])C1Nc1ccccc1[N+](=O)[O-]` (stereo unspecified), the T/C (dose: 60.0 mg/kg/injection, schedule: Q01DX005 (ip), vehicle: saline with Tween-80) is reported as 114 % of control and the T/C (dose: 120.0 mg/kg/injection, schedule: Q01DX005 (ip), vehicle: saline with Tween-80) is reported as 113 % of control.

With `COc1ccc2c(=O)cc[nH]c2c1OC` the T/C [3] was 100 % of control, the T/C [4] was 94 % of control and the T/C [5] was 94 % of control.

`CN(C)CCC(=O)c1cccs1` was tested, and the T/C [6] was 107 % of control and the T/C [7] was 105 % of control.

With `N/C(=N\S(=O)(=O)c1ccccc1)[N+](=O)[O-]` the T/C [1] was 102 % of control, the T/C [2] was 102 % of control and the T/C (dose: 200.0 mg/kg/injection, schedule: Q01DX005 (ip), vehicle: Klucel (hydroxypropylcellulose) (HPC)) was 98 % of control.

`Nc1nc(N)c2nc(CN(CCO)c3ccc(C(=O)NC(CCC(=O)O)C(=O)O)cc3)cnc2n1` (stereo unspecified) was tested, and the T/C (dose: 1.0 mg/kg/injection, schedule: Q01DX009 (ip), vehicle: Klucel (hydroxypropylcellulose) (HPC)) was 190 % of control, the T/C (dose: 1.2 mg/kg/injection, schedule: Q01DX009 (ip), vehicle: Klucel (hydroxypropylcellulose) (HPC)) was 153 % of control and the T/C (dose: 1.8 mg/kg/injection, schedule: Q01DX009 (ip), vehicle: Klucel (hydroxypropylcellulose) (HPC)) was 181 % of control. For the same molecule, the T/C (dose: 2.0 mg/kg/injection, schedule: Q01DX009 (ip), vehicle: Klucel (hydroxypropylcellulose) (HPC)) was 205 % of control, the T/C (dose: 2.6 mg/kg/injection, schedule: Q01DX009 (ip), vehicle: Klucel (hydroxypropylcellulose) (HPC)) was 195 % of control and the T/C (dose: 4.0 mg/kg/injection, schedule: Q01DX009 (ip), vehicle: Klucel (hydroxypropylcellulose) (HPC)) was 204 % of control and 223 % of control. The T/C (dose: 6.0 mg/kg/injection, schedule: Q01DX009 (ip), vehicle: Klucel (hydroxypropylcellulose) (HPC)) was 92 % of control.

With `COc1ccc2cc(Cl)c3ccccc3c2c1` the T/C [3] was 87 % of control, the T/C [4] was 90 % of control and the T/C [5] was 86 % of control.

`CC(=O)Oc1cc(-c2ccccc2)oc1-c1ccccc1` was tested, and the T/C (dose: 100.0 mg/kg/injection, schedule: Q04DX002 (ip), vehicle: saline) was 104 % of control, the T/C (dose: 200.0 mg/kg/injection, schedule: Q04DX002 (ip), vehicle: saline) was 106 % of control and the T/C (dose: 400.0 mg/kg/injection, schedule: Q04DX002 (ip), vehicle: saline) was 98 % of control.

For `COc1cc(N2C(N)=NC(N)=NC2(C)C)cc(OC)c1OC`, the T/C (dose: 6.25 mg/kg/injection, schedule: Q01DX009 (ip), vehicle: saline) was 100 % of control, the T/C (dose: 12.5 mg/kg/injection, schedule: Q01DX009 (ip), vehicle: saline) was 95 % of control and the T/C (dose: 25.0 mg/kg/injection, schedule: Q01DX009 (ip), vehicle: saline) was 90 % of control.

For `CCCCCCCCCCCCCC[N+]1(CC)CCCC1`, the T/C (dose: 6.25 mg/kg/injection, schedule: Q04DX002 (ip), vehicle: saline) was 119 % of control and the T/C (dose: 12.5 mg/kg/injection, schedule: Q04DX002 (ip), vehicle: saline) was 86 % of control.

`O=C(COc1ccc(Cl)cc1)OC(=O)COc1ccc(Cl)cc1` was tested, and the T/C (dose: 25.0 mg/kg/injection, schedule: Q01DX009 (ip), vehicle: other) was 110 % of control, the T/C (dose: 50.0 mg/kg/injection, schedule: Q01DX009 (ip), vehicle: other) was 112 % of control and the T/C (dose: 100.0 mg/kg/injection, schedule: Q01DX009 (ip), vehicle: other) was 110 % of control. For the same molecule, the T/C (dose: 200.0 mg/kg/injection, schedule: Q01DX009 (ip), vehicle: other) was 106 % of control.

`CCCCC(CC)(CC(=N)C(C)(C)C)c1ccccc1` (stereo unspecified) was tested, and the T/C (dose: 50.0 mg/kg/injection, schedule: Q01DX009 (ip), vehicle: saline + alcohol) was 111 % of control, the T/C (dose: 100.0 mg/kg/injection, schedule: Q01DX009 (ip), vehicle: saline + alcohol) was 103 % of control and the T/C (dose: 200.0 mg/kg/injection, schedule: Q01DX009 (ip), vehicle: saline + alcohol) was 119 % of control.

For `O=C1CSC(c2cccc(Cl)c2Cl)N1c1nncs1` (stereo unspecified), the T/C (dose: 100.0 mg/kg/injection, schedule: Q04DX002 (ip), vehicle: saline with Tween-80) was 112 % of control, the T/C (dose: 200.0 mg/kg/injection, schedule: Q04DX002 (ip), vehicle: saline with Tween-80) was 94 % of control and the T/C (dose: 400.0 mg/kg/injection, schedule: Q04DX002 (ip), vehicle: saline with Tween-80) was 97 % of control.

For `NC1=NC(=O)N2CC12` (stereo unspecified), the T/C [6] was 122 % of control, the T/C [7] was 153 % of control and 158 % of control and the T/C (dose: 200.0 mg/kg/injection, schedule: Q01DX009 (ip), vehicle: saline) was 100 % of control.

With `COc1cc(/C=N/NC(=O)c2cccs2)cc(OC)c1OC` the T/C (dose: 100.0 mg/kg/injection, schedule: Q01DX009 (ip), vehicle: saline with Tween-80) was 95 % of control, the T/C (dose: 200.0 mg/kg/injection, schedule: Q01DX009 (ip), vehicle: saline with Tween-80) was 100 % of control and the T/C (dose: 400.0 mg/kg/injection, schedule: Q01DX009 (ip), vehicle: saline with Tween-80) was 100 % of control.

For `O=C1OC(c2cccc(Cl)c2)=N/C1=C\C=C/c1ccccc1`, the T/C (dose: 50.0 mg/kg/injection, schedule: Q01DX009 (ip), vehicle: suspension in saline) was 93 % of control and the T/C (dose: 100.0 mg/kg/injection, schedule: Q01DX009 (ip), vehicle: suspension in saline) was 93 % of control.

In the case of `Cc1cccc(N=Nc2c(-c3ccccc3)nn(C(N)=S)c2-c2ccccc2)c1C`, the T/C (dose: 73.9 mg/kg/injection, schedule: Q04DX002 (ip), vehicle: Klucel (hydroxypropylcellulose) (HPC)) is reported as 96 % of control, the T/C (dose: 147.0 mg/kg/injection, schedule: Q04DX002 (ip), vehicle: Klucel (hydroxypropylcellulose) (HPC)) is reported as 96 % of control and the T/C (dose: 295.0 mg/kg/injection, schedule: Q04DX002 (ip), vehicle: Klucel (hydroxypropylcellulose) (HPC)) is reported as 100 % of control.

`O=S1(=O)C=C(c2ccc3ccccc3c2)C1` was tested, and the T/C (dose: 100.0 mg/kg/injection, schedule: Q01DX001 (ip), vehicle: saline with Tween-80) was 105 % of control, the T/C (dose: 200.0 mg/kg/injection, schedule: Q01DX001 (ip), vehicle: saline with Tween-80) was 100 % of control and the T/C (dose: 400.0 mg/kg/injection, schedule: Q01DX001 (ip), vehicle: saline with Tween-80) was 96 % of control.
